From patent US7915276B2, “Berberrubine derivatives having antifungal activities” (priority 2006, dated 2011)
In brackets after ≈: the same amount, converted by molar mass.

Legend:
[1] = biological target: T1, chitin synthase 1 of Candida albicans chs2 Δ chs 3 Δ (Candida albicans, UniProt P23316); assay: In vitro enzyme assay for chitin synthase 1 of Candida albicans (enzyme 1); assay type: biochemical; settings: relative to polyoxin D (50% inhibitory activity = value 5)
T1 construct: Crude enzyme was prepared using the Candida albicans chs2 Δ chs 3 Δ mutant; endogenous in cells; host or cells: Candida albicans chs2Δ/chs2Δ chs3Δ/chs3Δ mutant; 130,000 x g membrane pellet
T1 sequence (P23316 whole entry, stated change not applied): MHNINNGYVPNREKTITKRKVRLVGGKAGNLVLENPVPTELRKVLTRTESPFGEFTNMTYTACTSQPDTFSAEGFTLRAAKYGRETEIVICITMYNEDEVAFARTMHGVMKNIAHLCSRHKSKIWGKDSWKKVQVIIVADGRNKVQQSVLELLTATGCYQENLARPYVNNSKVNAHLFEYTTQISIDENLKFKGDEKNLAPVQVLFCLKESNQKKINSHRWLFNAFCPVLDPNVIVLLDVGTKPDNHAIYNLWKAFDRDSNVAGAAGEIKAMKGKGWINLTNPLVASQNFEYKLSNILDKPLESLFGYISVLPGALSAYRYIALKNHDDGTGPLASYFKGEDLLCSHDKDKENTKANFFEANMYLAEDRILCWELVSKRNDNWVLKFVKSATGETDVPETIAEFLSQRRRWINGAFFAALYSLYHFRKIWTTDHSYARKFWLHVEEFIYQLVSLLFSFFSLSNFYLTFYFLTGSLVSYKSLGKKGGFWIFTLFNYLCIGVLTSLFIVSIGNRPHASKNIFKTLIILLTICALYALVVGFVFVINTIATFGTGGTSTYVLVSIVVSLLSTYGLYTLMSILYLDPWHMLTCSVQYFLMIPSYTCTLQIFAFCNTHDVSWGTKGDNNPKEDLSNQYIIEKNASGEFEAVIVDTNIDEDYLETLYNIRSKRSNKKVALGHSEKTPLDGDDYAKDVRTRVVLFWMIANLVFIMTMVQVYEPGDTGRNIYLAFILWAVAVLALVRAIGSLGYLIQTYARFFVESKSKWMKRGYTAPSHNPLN
Experimental: Crude enzyme was prepared using the Candida albicans chs2 Δ chs 3 Δ mutant (chs2 Δ::hisG/chs2 Δ::hisG chs3 Δ::hisG/chs3 Δ::hisG) strain, which can only produce the chitin synthase 1. The strain was inoculated with the SDA (Sabouraud dextrose agar) culture medium (4% dextrose, 1% peptone, pH 5.6) and cultured at 30° C. for 15-17 hours until the absorbance at 550nm reaches 0.7. The cells were collected and suspended in a 50 mM Tris-HCl (pH 7.5) buffer solution containing 5 mM magnesium acetate. After centrifugation at 8,000×g for 10 minutes, the pellets were suspended in the same Tris-HCl buffer solution. The suspension was divided into aliquots in 50 mL conical test tubes. After adding glass beads, the cells were disrupted by vigorously vortexing with an interval of 30 seconds. The cell residues were removed by centrifuging at 3,000×g for 5 minutes. The supernatant was ultra-centrifuged at 130,000×g for 1 hour. The resultant pellets were collected and suspended in 50 mM Tris-HCl (pH 7.5) containing 33% glycerol, to a final volume of 1.6 mg/g (wet weight) of yeast used. The suspension was divided into aliquots and kept at −70° C. until it is used.
(§1) The inhibitory activities against the chitin synthase 1 of Candida albicans chs2 Δ chs 3 Δ (abbreviated as ‘enzyme 1’) and the chitin synthase 2 of Saccharomyces cerevisiae ECY38-38A(pAS6)(abbreviated as ‘enzyme 2’) was examined for compound Nos. 1 to 70 compound and polyoxin D, a positive control compound.
(§2) The inhibitory activity against the chitin synthase 1 prepared from Candida albicans and the chitin synthase 2 prepared from Saccharomyces cerevisiae were examined as follows. A reaction mixture containing 32 mM Tris-HCl (pH 7.5), 2 mM cobalt acetate, 1.1 mM UDP-[U-^14C]-N-acetyl-d-glucosamine (GlcNAc) (400,000 cpm/μmol), 2 μL of trypsin (0.75 mg/mL), 20 μL of each crude enzyme and 14 μL of each test sample was kept at 30° C. for 15 minutes to activate the enzyme. Then, 2 μL of trypsin inhibitor (1.5 mg/mL) was added and the mixture was kept in an ice bath for 10 minutes to deactivate trypsin. 2 μL of 0.8 M N-acetyl-d-glucosamine was added to a total volume of 50 μL and reaction was performed at 30° C. for 90 minutes. The reaction was stopped using 1 mL of 10% TCA solution and the reaction solution was filtered with a GF/C filter and dried at room temperature. After adding 3 mL of a scintillation cocktail solution, the amount of isotopes was measured using a liquid scintillation counter. Percentage inhibition against each enzyme was calculated by the following Equation 1.
(§3) The control group was not added with a test sample in the reaction mixture and that of the untreated group contained neither the test sample nor the crude enzyme.
(§4) A 50% inhibitory activity of polyoxin D against the enzyme was given the value 5. A compound having the same inhibitory activity as that of polyoxin D at the same concentration was given the value 5. Compounds having the inhibitory activity at 2-fold, 4-fold, 8-fold and 16-fold higher concentrations than that of polyoxin D were given the values of 4, 3, 2 and 1, respectively. On the other hand, compounds having the inhibitory activity at ½, ¼ and ⅛ lower concentrations than that of polyoxin D were given the values of 6, 7 and 8, respectively.

[2] = biological target: T2, chitin synthase 2 of Saccharomyces cerevisiae ECY38-38A(pAS6) (Saccharomyces cerevisiae, UniProt P14180); assay: In vitro enzyme assay for chitin synthase 2 of Saccharomyces cerevisiae (enzyme 2); assay type: biochemical; settings: relative to polyoxin D (50% inhibitory activity = value 5)
T2 construct: made in house; host or cells: Saccharomyces cerevisiae ECY38-38A (chs1-23 chs2::LEU2 cal1/csd2) carrying plasmid pAS6, grown in galactose medium; 130,000 x g membrane pellet
T2 sequence (P14180 whole entry): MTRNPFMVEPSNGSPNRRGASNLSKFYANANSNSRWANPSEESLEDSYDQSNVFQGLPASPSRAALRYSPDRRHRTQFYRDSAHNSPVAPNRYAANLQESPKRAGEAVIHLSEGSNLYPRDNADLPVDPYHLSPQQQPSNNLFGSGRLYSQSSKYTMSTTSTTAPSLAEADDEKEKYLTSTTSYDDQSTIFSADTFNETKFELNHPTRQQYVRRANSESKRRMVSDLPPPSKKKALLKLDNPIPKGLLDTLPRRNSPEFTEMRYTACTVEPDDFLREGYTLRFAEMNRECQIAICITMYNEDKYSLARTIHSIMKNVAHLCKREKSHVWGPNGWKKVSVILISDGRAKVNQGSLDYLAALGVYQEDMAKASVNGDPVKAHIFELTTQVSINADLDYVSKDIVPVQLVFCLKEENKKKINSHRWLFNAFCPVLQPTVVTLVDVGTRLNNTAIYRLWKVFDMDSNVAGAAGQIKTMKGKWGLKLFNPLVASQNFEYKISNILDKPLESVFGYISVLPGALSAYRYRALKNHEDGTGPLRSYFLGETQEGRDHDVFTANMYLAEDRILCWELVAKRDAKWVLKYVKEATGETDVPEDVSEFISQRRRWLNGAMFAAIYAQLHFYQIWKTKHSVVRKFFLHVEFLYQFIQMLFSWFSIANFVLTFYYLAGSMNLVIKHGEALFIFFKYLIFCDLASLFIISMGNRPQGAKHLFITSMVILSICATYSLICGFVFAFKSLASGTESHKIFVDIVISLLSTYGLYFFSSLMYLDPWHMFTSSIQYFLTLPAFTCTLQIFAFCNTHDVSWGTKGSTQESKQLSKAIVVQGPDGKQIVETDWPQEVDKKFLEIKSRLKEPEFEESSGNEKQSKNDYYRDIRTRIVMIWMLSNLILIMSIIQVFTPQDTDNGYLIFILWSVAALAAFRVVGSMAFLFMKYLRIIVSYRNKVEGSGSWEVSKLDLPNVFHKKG
Experimental: Crude enzyme was prepared using the recombinant Saccharomyces cerevisiae ECY38-38A(pAS6) (MATa chs1-23 chs2::LEU2 cal 1/csd 2 ura 3-52 trp 1-1 leu 2-2 pAS6) strain, which can produce the chitin synthase 2 only. The strain was inoculated with the YPG culture medium (1% yeast extract, 2% peptone, 2% galactose) and cultured at 30° C. overnight. Then, it was inoculated with a fresh YPG culture medium and cultured for 15-17 hours until the Absorbance at 550 nm reaches 1.0. The cells were collected and suspended in 50 mM Tris-HCl (pH 7.5) buffer containing 5 mM magnesium acetate. After centrifugation at 8,000×g for 10 minutes, the pellets were suspended in the same Tris-HCl buffer solution. The suspension was divided into aliquots in 50 mL conical test tubes. After adding the glass beads, the cells were disrupted by vigorously vortexing with an interval of 30 seconds. The cell residues were removed by centrifuging at 3,000×g for 5 minutes. The supernatant was ultra-centrifuged at 130,000×g for 1 hour. The resultant pellets were collected and suspended in 50 mM Tris-HCl (pH 7.5) containing 33% glycerol, to a final volume of 1.6 mg/g (wet weight) of yeast used. The suspension was divided into aliquots and kept at −70° C. until it is used.
as §1, §2, §3, §4

[3] = tested on: Aspergillus flavus ATCC 64025; assay: In vitro antifungal activity (MIC), NCCLS method; assay type: cell-based; settings: 48 hours
Excerpt: (§5) Candida albicans ATCC 10231, Candida lusitaniae ATCC 42720, Candida krusei ATCC 6258, Candida tropicalis ATCC 13803, Candida glabrata ATCC 48435, Candida parapsilosis ATCC 34136, Cryptococcus neoformans ATCC 36556, Aspergillus fumigatus ATCC 16424, Aspergillus flavus ATCC 64025, Aspergillus terreus ATCC 46941 and Mucor ramosissimus ATCC 90286 strains for the MIC (minimum inhibitory concentration) measurement were obtained from ATCC (American Type Culture Collection) in the U.S. The Candida albicans A207(clinical isolate) strain was used by isolating it from the patients.
(§6) The determination of MIC was performed according to the NCCLS (National Committee for Clinical Laboratory Standard) method. Each test sample solution was diluted two-fold and inoculated with a fungal suspension to reach a final inoculum size of 5×10^2 to 2.5×10^3 cell/mL. The Cryptococcus neoformans strain was cultured in the RPMI 1640 medium for 72 hours. Other strains were cultured for 48 hours.

[4] = tested on: Aspergillus fumigatus ATCC 16424; assay: In vitro antifungal activity (MIC), NCCLS method; assay type: cell-based; settings: 48 hours
Excerpt: as §5, §6

[5] = tested on: Aspergillus terreus ATCC 46941; assay: In vitro antifungal activity (MIC), NCCLS method; assay type: cell-based; settings: 48 hours
Excerpt: as §5, §6

[6] = tested on: Candida albicans A207 (clinical isolate); assay: In vitro antifungal activity (MIC), NCCLS method; assay type: cell-based; settings: 48 hours
Excerpt: as §5, §6

[7] = tested on: Candida albicans ATCC 10231; assay: In vitro antifungal activity (MIC), NCCLS method; assay type: cell-based; settings: 48 hours
Excerpt: as §5, §6

[8] = tested on: Candida glabrata ATCC 48435; assay: In vitro antifungal activity (MIC), NCCLS method; assay type: cell-based; settings: Candida glabrata ATCC 48435; 48 hours
Excerpt: as §5, §6

Candida krusei ATCC 6258 = assay: In vitro antifungal activity (MIC), NCCLS method; assay type: cell-based; settings: 48 hours
Excerpt: as §5, §6

[9] = tested on: Candida lusitaniae ATCC 42720; assay: In vitro antifungal activity (MIC), NCCLS method; assay type: cell-based; settings: 48 hours
Excerpt: as §5, §6

[10] = tested on: Candida parapsilosis ATCC 34136; assay: In vitro antifungal activity (MIC), NCCLS method; assay type: cell-based; settings: Candida parapsilosis ATCC 34136; 48 hours
Excerpt: as §5, §6

[11] = tested on: Candida tropicalis ATCC 13803; assay: In vitro antifungal activity (MIC), NCCLS method; assay type: cell-based; settings: 48 hours
Excerpt: as §5, §6

[12] = tested on: Cryptococcus neoformans ATCC 36556; assay: In vitro antifungal activity (MIC), NCCLS method; assay type: cell-based; settings: RPMI 1640 medium, 72 hours
Excerpt: as §5, §6

[13] = tested on: Mucor ramosissimus ATCC 90286; assay: In vitro antifungal activity (MIC), NCCLS method; assay type: cell-based; settings: 48 hours
Excerpt: as §5, §6

| Compound | Relative activity Enzyme 1 [1] | Relative activity Enzyme 2 [2] | MIC (minimum inhibitory concentration) [3] [µg/mL] | MIC (minimum inhibitory concentration) [4] [µg/mL] | MIC (minimum inhibitory concentration) [5] [µg/mL] | MIC (minimum inhibitory concentration) [6] [µg/mL] | MIC (minimum inhibitory concentration) [7] [µg/mL] | MIC (minimum inhibitory concentration) [8] [µg/mL] | MIC (minimum inhibitory concentration) (Candida krusei ATCC 6258) [µg/mL] | MIC (minimum inhibitory concentration) [9] [µg/mL] | MIC (minimum inhibitory concentration) [10] [µg/mL] | MIC (minimum inhibitory concentration) [11] [µg/mL] | MIC (minimum inhibitory concentration) [12] [µg/mL] | MIC (minimum inhibitory concentration) [13] [µg/mL] |
| --- | --- | --- | --- | --- | --- | --- | --- | --- | --- | --- | --- | --- | --- | --- |
| 13-(4-tert-Butylbenzyl)-9-O-(6-chlorohexyl)berberrubine chloride [Compound No. 44] | 2 (Compounds having the inhibitory activity at 2-fold, 4-fold, 8-fold and 16-fold higher concentrations than that of polyoxin D were given the values of 4, 3, 2 and 1, respectively) | 6 (compounds having the inhibitory activity at ½, ¼ and ⅛ lower concentrations than that of polyoxin D were given the values of 6, 7 and 8, respectively) | 8 | 2 | 8 | 0.5 | 0.5 | 2 | 1 | 2 | 2 | 0.5 | 1 | 4 |
| 13-(4-tert-Butylbenzyl)-9-O-hexylberberrubine chloride [Compound No. 41] | 4 (Compounds having the inhibitory activity at 2-fold, 4-fold, 8-fold and 16-fold higher concentrations than that of polyoxin D were given the values of 4, 3, 2 and 1, respectively) | 6 (compounds having the inhibitory activity at ½, ¼ and ⅛ lower concentrations than that of polyoxin D were given the values of 6, 7 and 8, respectively) | 8 | 2 | 8 | 0.25 | 0.25 | 2 | 1 | 0.5 | 2 | 0.125 | 0.5 | 4 |
| C[C@@H]1[C@H](O)[C@@H](C)/C=C/C=C/C=C/C=C/C=C/C=C/C=C/[C@H](O[C@@H]2O[C@H](C)[C@@H](O)[C@H](N)[C@@H]2O)C[C@@H]2O[C@](O)(C[C@@H](O)C[C@@H](O)[C@H](O)CC[C@@H](O)C[C@@H](O)CC(=O)O[C@H]1C)C[C@H](O)[C@H]2C(=O)O [amphotericin B, reference compound] | – | – | 4 (≈ 4.33 µM) | 1 (≈ 1.08 µM) | 16 (≈ 17.3 µM) | 0.5 (≈ 0.541 µM) | 0.5 (≈ 0.541 µM) | 1 (≈ 1.08 µM) | 0.5 (≈ 0.541 µM) | 1 (≈ 1.08 µM) | 0.5 (≈ 0.541 µM) | 0.5 (≈ 0.541 µM) | 0.125 (≈ 0.135 µM) | 0.5 (≈ 0.541 µM) |
| COc1ccc2c(Cc3ccc(C(F)(F)F)cc3)c3[n+](cc2c1OCc1ccc(C(C)(C)C)cc1)CCc1cc2c(cc1-3)OCO2.[Br-] [Compound No. 38, 13-(4-Trifluoromethylbenzyl)-9-O-(4-tert-butylbenzyl)berberrubine bromide] | 2 (Compounds having the inhibitory activity at 2-fold, 4-fold, 8-fold and 16-fold higher concentrations than that of polyoxin D were given the values of 4, 3, 2 and 1, respectively) | 5 (A compound having the same inhibitory activity as that of polyoxin D at the same concentration was given the value 5) | – | – | – | – | – | – | – | – | – | – | – | – |
| 13-(3,4,5-Trimethoxybenzyl)-9-O-butylberberrubine chloride [Compound No. 62] | 2 (Compounds having the inhibitory activity at 2-fold, 4-fold, 8-fold and 16-fold higher concentrations than that of polyoxin D were given the values of 4, 3, 2 and 1, respectively) | 5 (A compound having the same inhibitory activity as that of polyoxin D at the same concentration was given the value 5) | – | – | – | – | – | – | – | – | – | – | – | – |
| COc1ccc2c(Cc3ccc(C(F)(F)F)cc3)c3[n+](cc2c1OCc1ccc(C(C)(C)C)cc1)CCc1cc2c(cc1-3)OCO2.[Cl-] [Compound No. 70, 13-(4-Trifluoromethylbenzyl)-9-O-(4-tert-butylbenzyl)berberrubine chloride] | 2 (Compounds having the inhibitory activity at 2-fold, 4-fold, 8-fold and 16-fold higher concentrations than that of polyoxin D were given the values of 4, 3, 2 and 1, respectively) | 5 (A compound having the same inhibitory activity as that of polyoxin D at the same concentration was given the value 5) | – | – | – | – | – | – | – | – | – | – | – | – |
| 13-(4-Trifluoromethylbenzyl)-9-O-hexylberberrubine iodide [Compound No. 37] | 2 (Compounds having the inhibitory activity at 2-fold, 4-fold, 8-fold and 16-fold higher concentrations than that of polyoxin D were given the values of 4, 3, 2 and 1, respectively) | 5 (A compound having the same inhibitory activity as that of polyoxin D at the same concentration was given the value 5) | – | – | – | – | – | – | – | – | – | – | – | – |
